These results are taken from ChEMBL document CHEMBL5441456, “ASAP - SARS-CoV-2 nsp3 macrodomain dose response” (2024).

Structures are written as SMILES. Several values for one entry are separate records, joined by “and”; a condition that tells them apart may be missing. Equal entries are not always repeated.

What is called IC50 is the concentration needed to halve the response being measured. Low readings indicate higher potency, high ones lower potency.

For this assay, the target named is Replicase polyprotein 1ab (Severe acute respiratory syndrome coronavirus 2, UniProt P0DTD1). In words: Functional biochemical assay to identify treatments for viral infectious disease that targets SARS-COV-2 nsp3 macrodomain, whereby the mechanism of action displaces an ADP-Ribose modified peptide from the binding site. Utilizing a time-resolved fluorescence method to measure binding by reading the emitted fluorescence intensity in two wavelengths.
For the compound `CCNC(=O)c1cc2c(N[C@@H](c3ccc4c(c3)S(=O)(=O)CCC4)C(C)C)ncnc2[nH]1`, the IC50 was 56 nM and 100 nM and 20 nM and 34 nM and 19 nM and 33 nM and 53 nM and 32 nM and 42 nM.
For the compound `CC(C)[C@H](Nc1ncnc2[nH]c(-c3cnn(C)c3C#N)cc12)c1ccc2c(c1)S(=O)(=O)CCC2`, the IC50 was 18 nM and 15 nM and 13 nM.
Next, `CCNC(=O)c1cc2c(N[C@@H](c3ccc4c(c3)S(=O)(=O)NCC4)C(C)C)ncnc2[nH]1`: 124 nM and 117 nM and 95 nM and 197 nM; `CNC(=O)c1cc2c(N[C@@H](c3ccc4c(c3)S(=O)(=O)CCC4)C(C)C)ncnc2[nH]1`: 52 nM (2×) and 78 nM and 24 nM and 48 nM and 38 nM and 35 nM and 60 nM.
Next, `CC(C)[C@@H](Nc1ncnc2[nH]c(-c3cnn(CC(=O)N(C)C)c3)cc12)c1ccc2c(c1)S(=O)(=O)CCC2`: 39 nM and 55 nM and 30 nM and 26 nM and 45 nM and 29 nM and 33 nM; `CC(C)[C@@H](Nc1c(N)cnc2[nH]ccc12)c1ccc2c(c1)S(=O)(=O)CCC2`: > 99500 nM.
Next, `CC(C)[C@@H](Nc1ncnc2[nH]ccc12)c1ccc2c(c1)S(=O)(=O)CO2`: 3620 nM and 2350 nM.
On to `CC(C)[C@@H](Nc1ncnc2[nH]c(C(=O)NC3(CF)COC3)cc12)c1ccc2c(c1)OCCO2`, for which the IC50 is 1250 nM and 1740 nM.
Next, `CC(C)[C@@H](Nc1ncnc2[nH]c(C(=O)NCc3ccno3)cc12)c1ccc2c(c1)OCCO2`: 792 nM and 829 nM; `CC(C)[C@@H](Nc1ncnc2[nH]c(C(=O)NCC3(CO)CC3)cc12)c1ccc2c(c1)OCCO2`: 802 nM and 2140 nM.
Next, `CC(C)[C@@H](Nc1ncnc2[nH]c(C(=O)Nc3cn(C)nc3O)cc12)c1ccc2c(c1)OCCO2`: 678 nM and 611 nM; `Cc1ncn(C)c1NC(=O)c1cc2c(N[C@@H](c3ccc4c(c3)OCCO4)C(C)C)ncnc2[nH]1`: 10700 nM and 19700 nM.
Next, `CC(C)[C@@H](Nc1ccnc2nn[nH]c12)c1ccc2c(c1)S(=O)(=O)CCC2`: > 99500 nM.
Regarding `CC(C)[C@@H](Nc1ccnc2nccn12)c1ccc2c(c1)S(=O)(=O)CCC2`, the half-maximal inhibitory concentration (IC50) was > 99500 nM.
With `CC(C)[C@@H](Nc1ncnc2[nH]c(C(=O)NCc3c[nH]cn3)cc12)c1ccc2c(c1)OCCO2`, the IC50 is 1150 nM and 2570 nM.
Next, `CC(C)[C@@H](Nc1ncnc2[nH]c([C@@]3(O)CCCNC3)cc12)c1ccc2c(c1)OCCO2`: 17800 nM and 13900 nM.
Next, `CC(C)[C@@H](Nc1ncnc2[nH]c(C(=O)NCC(C)(C)C#N)cc12)c1ccc2c(c1)OCCO2`: 2100 nM and 4220 nM; `CC(C)[C@@H](Nc1ccnc2[nH]ccc12)c1ccc2c(c1)S(=O)(=O)CCC2`: > 99500 nM.
Next, `CC(C)[C@@H](Nc1ncnc2[nH]c(C(=O)N[C@H]3[C@@H]4CN(C)C[C@@H]43)cc12)c1ccc2c(c1)OCCO2`: 1100 nM and 2060 nM; `CNCc1cc(-c2cc3c(N[C@@H](c4ccc5c(c4)NC(=O)CO5)C(C)C)ncnc3[nH]2)co1`: 313 nM and 187 nM.
For the compound `CC(C)[C@@H](Nc1ncnc2[nH]ccc12)c1cccc(S(C)(=O)=O)c1`, the IC50 came to 96400 nM.
Next, `CO[C@@H]1CCC[C@H]1NC(=O)c1cc2c(N[C@@H](c3ccc4c(c3)OCCO4)C(C)C)ncnc2[nH]1`: 1010 nM and 1340 nM; `CC(C)[C@@H](Nc1cccc2nc[nH]c(=O)c12)c1ccc2c(c1)S(=O)(=O)CCC2`: > 99500 nM; `CC(C)[C@@H](Nc1ncnc2[nH]c(C(=O)NCCc3cnco3)cc12)c1ccc2c(c1)OCCO2`: 954 nM and 1910 nM.
Take `CC(C)[C@@H](Nc1ncnc2[nH]c(C(=O)N[C@H]3[C@@H]4COC[C@@H]43)cc12)c1ccc2c(c1)OCCO2`: the IC50 was 629 nM and 543 nM.
On to `CCNC(=O)c1cc2c(N[C@@H](C(=O)NC3CCOCC3)C(C)C)ncnc2[nH]1`, for which the IC50 is > 99500 nM.
Next, `CCNC(=O)c1cc2c(N[C@@H](c3cccc(-c4ccc(OC)nc4)c3)C(C)C)ncnc2[nH]1`: 20900 nM and 17700 nM; `CC(C)[C@@H](Nc1ccnc2[nH]ncc12)c1ccc2c(c1)S(=O)(=O)CCC2`: > 99500 nM; `CC(C)[C@@H](Nc1ncnc2[nH]c(C(=O)Nc3cnccc3O)cc12)c1ccc2c(c1)OCCO2`: 9980 nM and 17900 nM.
Next, `CCNC(=O)c1cc2c(N[C@@H](c3nc4ccccc4o3)C(C)C)ncnc2[nH]1`: 20500 nM and 17600 nM.
Next, `CCNC(=O)c1cc2c(N[C@@H](c3cc4c(cc3Cl)OCO4)C(C)C)ncnc2[nH]1`: 6220 nM and 4920 nM.
`CC(C)[C@@H](Nc1ncnc2[nH]c([C@@]3(O)CCOC3)cc12)c1ccc2c(c1)OCCO2`: the IC50 is 9980 nM and 23000 nM.
Next, `CC(C)[C@@H](Nc1ncnc2[nH]ccc12)c1ccc(F)c(C#N)c1`: 4150 nM and 16600 nM; `CC(C)[C@@H](Nc1n[nH]c2ncccc12)c1ccc2c(c1)S(=O)(=O)CCC2`: 43500 nM; `O=C(O)CC(NC(=O)c1ncnc2[nH]ccc12)c1ccc(NC2C[C@H]3CC(CO)C[C@@H]23)cc1` (some centres not stated): > 99500 nM.
Next, `CNc1nccc(N[C@@H](c2ccc3c(c2)S(=O)(=O)CCC3)C(C)C)n1`: > 99500 nM; `Cc1cnn(C)c1NC(=O)c1cc2c(N[C@@H](c3ccc4c(c3)OCCO4)C(C)C)ncnc2[nH]1`: 27300 nM and > 99500 nM.
`CC(C)[C@@H](Nc1ncnc2[nH]ccc12)c1ccc2c(c1)S(=O)(=O)NCC2`: the IC50 was 1270 nM and 967 nM.
On to `CCc1[nH]nnc1NC(=O)c1cc2c(N[C@@H](c3ccc4c(c3)OCCO4)C(C)C)ncnc2[nH]1`, for which the IC50 was 4420 nM and 4280 nM.
Next, `COc1c(Cl)ncnc1N[C@@H](c1ccc2c(c1)S(=O)(=O)CCC2)C(C)C`: > 99500 nM.
Next, `CC(C)[C@@H](Nc1ncnc2[nH]c(C(=O)NC[C@@H]3CCOC3)cc12)c1ccc2c(c1)OCCO2`: 580 nM and 1150 nM.
On to `CC(C)[C@@H](Nc1ncnc2[nH]c(C(=O)NCC3CN(C)C3)cc12)c1ccc2c(c1)OCCO2`, for which the IC50 is 866 nM and 790 nM.
Turning to `CCNC(=O)c1cc2c(N[C@@H](CCc3cccc(NS(C)(=O)=O)c3)C(C)C)ncnc2[nH]1`, the IC50 was > 99500 nM.
Next, `CC(C)[C@@H](Nc1ncnc2[nH]c(C(=O)NCCC(F)F)cc12)c1ccc2c(c1)OCCO2`: 837 nM and 1340 nM; `CC(C)[C@@H](Nc1ncnc2[nH]c(C(=O)NCC3(C#N)CC3)cc12)c1ccc2c(c1)OCCO2`: 1090 nM and 2640 nM.
Regarding `CC(C)[C@@H](Nc1nccc2[nH]c(=O)[nH]c12)c1ccc2c(c1)S(=O)(=O)CCC2`, the IC50 is > 99500 nM.
Next, `O=C1NCCc2ccc(CNc3ncnc4[nH]ccc34)cc21`: > 99500 nM.
Next, `COc1ccc([C@@H](NC(=O)c2ncnc3[nH]ccc23)C(C)(C)C#N)cc1`: > 99500 nM; `CC(C)[C@@H](Nc1ncnc2[nH]ccc12)c1ccc2c(c1)S(=O)(=O)N(C)CC2`: 5760 nM and 17000 nM.
Next, `CC(C)[C@@H](Nc1ncnc2[nH]c(C(=O)NCc3cnco3)cc12)c1ccc2c(c1)OCCO2`: 639 nM and 1760 nM; `CC(C)[C@@H](Nc1ncnc2[nH]c(C(=O)NCC3=NCCCN3)cc12)c1ccc2c(c1)OCCO2`: 3680 nM and 7820 nM; `CC(C)[C@@H](Nc1ncnc2[nH]c(C(=O)Nc3cnoc3)cc12)c1ccc2c(c1)OCCO2`: 1970 nM and 5690 nM.
Take `CCNC(=O)c1cc2c(N[C@@H](c3cccnc3OCC(F)(F)F)C(C)C)ncnc2[nH]1`: the concentration for half-maximal inhibition (IC50) is > 99500 nM.
Next, `CC(C)[C@@H](Nc1ncnc2[nH]c(C(=O)NCc3ncccn3)cc12)c1ccc2c(c1)OCCO2`: 2940 nM and 5870 nM; `COc1nc(NC(=O)c2cc3c(N[C@@H](c4ccc5c(c4)OCCO5)C(C)C)ncnc3[nH]2)n[nH]1`: 47200 nM.
With `CC(=O)N1CC(NC(=O)c2cc3c(N[C@@H](c4ccc5c(c4)OCCO5)C(C)C)ncnc3[nH]2)C1`, the IC50 was 793 nM and 2000 nM.
On to `CC(C)[C@@H](Nc1ncnc2[nH]c(C(=O)NCC3(F)CC3)cc12)c1ccc2c(c1)OCCO2`, for which the IC50 is 1360 nM and 2020 nM.
Next, `CC(C)[C@@H](Nc1ncnc2[nH]c(C(=O)NCCc3c[nH]nn3)cc12)c1ccc2c(c1)OCCO2`: 1290 nM and 947 nM; `CC(C)[C@@H](Nc1ncnc2[nH]c(C(=O)NCc3nncn3C)cc12)c1ccc2c(c1)OCCO2`: 1390 nM and 1230 nM; `Cc1ccc([C@@H](Nc2ncnc3[nH]ccc23)C(C)C)cc1S(C)(=O)=O`: 7290 nM and 11300 nM.
Next, `COc1ccc([C@@H](NC(=O)c2ncnc3[nH]ccc23)C(C)(C)c2nnn[nH]2)cc1`: 1690 nM and 3910 nM.
Next, `CC(C)[C@H](Nc1ncnc2[nH]c(-c3cnn(C)c3C#N)cc12)c1ccc2c(c1)OCCO2`: 238 nM and 901 nM.
On to `Cn1ncc(-c2cc3c(N[C@H](c4ccc5c(n4)OCCO5)C(C)(C)C)ncnc3[nH]2)c1C#N`, for which the IC50 is 4960 nM and 2330 nM and 3080 nM and 2420 nM and 10800 nM.
Next, `CC(C)[C@@H](Nc1cnc2[nH]cnc2c1)c1ccc2c(c1)S(=O)(=O)CCC2`: > 99500 nM; `CC(C)[C@@H](Nc1ncnc2[nH]c(C(=O)Nc3ncco3)cc12)c1ccc2c(c1)OCCO2`: 7240 nM and 5890 nM; `Cc1ncc(CNC(=O)c2cc3c(N[C@@H](c4ccc5c(c4)OCCO5)C(C)C)ncnc3[nH]2)o1`: 695 nM and 623 nM.
Next, `CC(C)[C@@H](Nc1ncnc2[nH]c(C(=O)NCC3(CO)CCC3)cc12)c1ccc2c(c1)OCCO2`: 1300 nM and 2350 nM; `CC(C)[C@@H](Nc1ncnc2[nH]c(C(=O)N[C@@H]3CCN(C)C3)cc12)c1ccc2c(c1)OCCO2`: 414 nM and 502 nM.
As for `CC(C)[C@@H](Nc1ncnc2[nH]c(C(=O)O)cc12)c1ccc2c(c1)OCCO2`, the IC50 is 11700 nM and 11500 nM.
Next, `CC(C)[C@@H](Nc1ncnc2[nH]c(C(=O)NCc3ccn(C)n3)cc12)c1ccc2c(c1)OCCO2`: 955 nM and 1040 nM; `CC(C)[C@@H](Nc1ncnc2[nH]c(C(=O)NCCc3cn[nH]c3)cc12)c1ccc2c(c1)OCCO2`: 1360 nM and 3400 nM.
Next, `CC(C)[C@@H](c1ccc2c(c1)S(=O)(=O)CCC2)n1c(=O)[nH]c2c(N)ccnc21`: > 99500 nM; `CC(C)[C@@H](Nc1ncnc2[nH]c(C(=O)NC3CN(C)C3)cc12)c1ccc2c(c1)OCCO2`: 1440 nM and 3270 nM.
Take `COCCC1(NC(=O)c2cc3c(N[C@@H](c4ccc5c(c4)OCCO5)C(C)C)ncnc3[nH]2)CC1`: the IC50 is 2840 nM and 4420 nM.
Turning to `CC(C)[C@@H](Nc1ncnc2[nH]c(C(=O)NC34CC(C#N)(C3)C4)cc12)c1ccc2c(c1)OCCO2`, the IC50 is 1360 nM and 1930 nM.
As to `COc1cn[nH]c1NC(=O)c1cc2c(N[C@@H](c3ccc4c(c3)OCCO4)C(C)C)ncnc2[nH]1`, the IC50 turned out to be 72600 nM.
Next, `CCNC(=O)c1cc2c(N[C@@H](CC(=O)Nc3cnn(C(C)C)c3)C(C)C)ncnc2[nH]1`: 27700 nM and 23500 nM.
